From US20230089073A1 (Carmot Therapeutics, Inc., priority 2021, published 2023) come the findings set out here.

This assay has as its target T1, human GLP-1 receptor (Homo sapiens, UniProt P43220).
T1 construct: expressed in transfected cells
Kind of assay: GLP-1R cAMP Assay. Format: cell-based. The conditions noted are these: cAMP accumulation in CHO cells stably overexpressing the human GLP-1 receptor; 30 min treatment; HitHunter cAMP kit; read-out: EC50. The essentials:
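CHO cells stably overexpressing human GLP-1R, 10,000 cells/well, treated with compound in 20-point dose response in triplicate for 30 min. cAMP accumulation read by enzyme-complementation luminescence after lysis and overnight incubation; dose-response curves fitted.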

T1 sequence (P43220 24-463): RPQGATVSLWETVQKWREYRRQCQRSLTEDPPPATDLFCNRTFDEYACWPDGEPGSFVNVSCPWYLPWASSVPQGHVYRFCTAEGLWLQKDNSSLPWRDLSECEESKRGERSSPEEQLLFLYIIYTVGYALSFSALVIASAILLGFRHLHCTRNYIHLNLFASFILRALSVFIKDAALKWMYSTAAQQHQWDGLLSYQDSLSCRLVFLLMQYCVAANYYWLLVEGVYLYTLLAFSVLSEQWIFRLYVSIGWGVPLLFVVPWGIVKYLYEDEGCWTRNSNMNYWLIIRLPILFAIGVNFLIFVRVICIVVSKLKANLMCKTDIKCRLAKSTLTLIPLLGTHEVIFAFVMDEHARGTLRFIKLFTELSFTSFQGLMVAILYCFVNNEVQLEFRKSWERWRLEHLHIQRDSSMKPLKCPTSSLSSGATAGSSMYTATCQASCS

On to `CCn1cncc1Cn1c(CN2CC[C@@H](Cc3cnc(COc4ccc(Cl)cc4Cl)o3)C[C@@H]2C)nc2ccc(C(=O)O)cc21` [Compound 278, 2-{[(2S,4R)-4-({2-[(2,4-dichlorophenoxy)methyl]-1,3-oxazol-5-yl}methyl)-2-methylpiperidin-1-yl]methyl}-1-[(1-ethyl-1H-imidazol-5-yl)methyl]-1H-1,3-benzodiazole-6-carboxylic acid], for which the EC50 was under 0.05 µM.

Turning to `O=C(O)c1ccc2nc(CN3CCC(Oc4ccnc(COc5ccc(Cl)cc5F)c4)CC3)n(C[C@@H]3CCO3)c2n1` [Compound 378], the EC50 was under 0.05 µM.

For the molecule `O=C(O)c1ccc2nc(CN3CCN(C(=O)c4ccc(COc5ccccc5)o4)CC3)n(C[C@@H]3CCO3)c2c1` [Compound 30, 1-{[(2S)-oxetan-2-yl]methyl}-2-({4-[5-(phenoxymethyl)furan-2-carbonyl]piperazin-1-yl}methyl)-1H-1,3-benzodiazole-6-carboxylic acid], the EC50 is over 0.5 µM.

For the molecule `CCn1cncc1Cn1c(CN2CCC(Cc3cccc(COc4ccc(C)cc4Cl)n3)CC2)nc2ccc(C(=O)O)cc21` [Compound 120, 2-{[4-({6-[(2-chloro-4-methylphenoxy)methyl]pyridin-2-yl}methyl)piperidin-1-yl]methyl}-1-[(1-ethyl-1H-imidazol-5-yl)methyl]-1H-1,3-benzodiazole-6-carboxylic acid], the EC50 is under 0.05 µM.

`Cc1ccc(N(C)c2cccc(OC3CCN(Cc4nc5ccc(C(=O)O)cc5n4C[C@@H]4CCO4)CC3)c2)c(Cl)c1` [Example 111, (S)-2-((4-(3-((2-Chloro-4-methylphenyl)(methyl)amino)phenoxy)piperidin-1-yl)methyl)-1-(oxetan-2-ylmethyl)-1H-benzo[d]imidazole-6-carboxylic acid]: the EC50 was 0.05 to 0.5 µM.

Consider `N#Cc1cc(F)ccc1OCc1cccc(OC2CCN(Cc3nc4c(F)cc(C(=O)O)cc4n3C[C@@H]3CCO3)CC2)c1` [Compound 317], for which the EC50 was under 0.05 µM.

Take `CCn1cncc1Cn1c(CN2CCN(C(=O)c3cc(N(C)c4ccc(C)cc4Cl)ccc3C)CC2)nc2ccc(C(=O)O)cc21` [Compound 76, 2-[(4-{5-[(2-chloro-4-methylphenyl)(methyl)amino]-2-methylbenzoyl}piperazin-1-yl)methyl]-1-[(1-ethyl-1H-imidazol-5-yl)methyl]-1H-1,3-benzodiazole-6-carboxylic acid]: the EC50 was under 0.05 µM.

For the molecule `C[C@H]1C[C@@H](Oc2nc(COc3ccc(C#N)cc3F)ncc2F)CCN1Cc1nc2ccc(C(=O)O)cc2n1C[C@@H]1CCO1` [Compound 493, 2-{[(2S,4S)-4-({2-[(4-cyano-2-fluorophenoxy)methyl]-5-fluoropyrimidin-4-yl}oxy)-2-methylpiperidin-1-yl]methyl}-1-{[(2S)-oxetan-2-yl]methyl}-1H-1,3-benzodiazole-6-carboxylic acid], the EC50 is under 0.05 µM.

For the molecule `CCn1cncc1Cn1c(CN2CCN(C(=O)c3cccc(N(C)c4ccc(C)cc4Cl)c3)CC2)nc2ccc(C(=O)O)cc21` [Compound 54, 2-[(4-{3-[(2-chloro-4-methylphenyl)(methyl)amino]benzoyl}piperazin-1-yl)methyl]-1-[(1-ethyl-1H-imidazol-5-yl)methyl]-1H-1,3-benzodiazole-6-carboxylic acid], the concentration giving a half-maximal response (EC50) is 0.05 to 0.5 µM.

As to `O=C(c1ccc(-c2nnn[nH]2)nc1)N1CCN(Cc2ccc(COc3ccc(Cl)cc3Cl)o2)CC1` [Compound 97, 1-({5-[(2,4-dichlorophenoxy)methyl]furan-2-yl}methyl)-4-[6-(1H-1,2,3,4-tetrazol-5-yl)pyridine-3-carbonyl]piperazine], the EC50 was over 0.5 µM.

For the molecule `CN(c1cccc(C(=O)N2CCN(Cc3nc4ccc(C(=O)O)cc4n3C[C@@H]3CCO3)CC2)c1)c1ccc(C2CC2)cc1Cl` [Compound 122, 2-[(4-{3-[(2-chloro-4-cyclopropylphenyl)(methyl)amino]benzoyl}piperazin-1-yl)methyl]-1-{[(2S)-oxetan-2-yl]methyl}-1H-1,3-benzodiazole-6-carboxylic acid], the half-maximal effective concentration (EC50) was under 0.05 µM.

For the molecule `O=C(O)c1ccc2nc(CN3CCC(Cc4cccc(COc5ccc(Cl)cc5Cl)c4)CC3)n(C[C@@H]3CCO3)c2c1` [Compound 103, 2-{[4-({3-[(2,4-dichlorophenoxy)methyl]phenyl}methyl)piperidin-1-yl]methyl}-1-{[(2S)-oxetan-2-yl]methyl}-1H-1,3-benzodiazole-6-carboxylic acid], the EC50 was under 0.05 µM.

With `O=C(O)c1ccc2nc(CN3CCc4[nH]c5ccc(OC(F)(F)F)cc5c4C3)n(C[C@@H]3CCO3)c2c1` [Compound 53, 1-{[(2S)-oxetan-2-yl]methyl}-2-{[8-(trifluoromethoxy)-1H,2H,3H,4H,5H-pyrido[4,3-b]indol-2-yl]methyl}-1H-1,3-benzodiazole-6-carboxylic acid], the EC50 was over 0.5 µM.

`Cc1ccc(N(C)c2ccc(C)c(C(=O)N3CCN(Cc4nc5ccc(C(=O)O)cc5n4C[C@@H]4CCO4)CC3)c2)c(Cl)c1` [Compound 75, 2-[(4-{5-[(2-chloro-4-methylphenyl)(methyl)amino]-2-methylbenzoyl}piperazin-1-yl)methyl]-1-{[(2S)-oxetan-2-yl]methyl}-1H-1,3-benzodiazole-6-carboxylic acid]: the EC50 is under 0.05 µM.

As to `Cc1cc(C(=O)O)cc2c1nc(CN1CCC(Oc3ccnc(COc4ccc(C#N)cc4F)n3)CC1)n2C[C@@H]1CCO1` [Compound 484, 2-{[4-({2-[(4-cyano-2-fluorophenoxy)methyl]pyrimidin-4-yl}oxy)piperidin-1-yl]methyl}-4-methyl-1-{[(2S)-oxetan-2-yl]methyl}-1H-1,3-benzodiazole-6-carboxylic acid], the EC50 was under 0.05 µM.

For `N#Cc1cc(Cl)ccc1OCc1cc(OC2CCN(Cc3nc4ccc(C(=O)O)cc4n3C[C@@H]3CCO3)CC2)ccn1` [Compound 182, 2-{[4-({2-[(4-chloro-2-cyanophenoxy)methyl]pyridin-4-yl}oxy)piperidin-1-yl]methyl}-1-{[(2S)-oxetan-2-yl]methyl}-1H-1,3-benzodiazole-6-carboxylic acid], the EC50 was under 0.05 µM.

Take `O=C(O)c1ccc2nc(CN3CCN(C(=O)c4ccc(Cc5ccc(Cl)cc5Cl)o4)CC3)n(C[C@@H]3CCO3)c2c1` [Example 59, (S)-2-((4-(5-(2,4-Dichlorobenzyl)furan-2-carbonyl)piperazin-1-yl)methyl)-1-(oxetan-2-ylmethyl)-1H-benzo[d]imidazole-6-carboxylic acid]: the EC50 lay in the range of 0.05 to 0.5 µM.

Take `C[C@H]1C[C@@H](Oc2ccnc(COc3cc(F)c(F)cc3F)n2)CCN1Cc1nc2ccc(C(=O)O)cc2n1C[C@@H]1CCO1` [Compound 514, 2-{[(2S,4S)-2-methyl-4-({2-[(2,4,5-trifluorophenoxy)methyl]pyrimidin-4-yl}oxy)piperidin-1-yl]methyl}-1-{[(2S)-oxetan-2-yl]methyl}-1H-1,3-benzodiazole-6-carboxylic acid]: the EC50 is under 0.05 µM.

`O=C(O)c1ccc2nc(CN3CCC(Cc4cccc(COc5ccc(Cl)cc5Cl)c4)CC3)n(C[C@@H]3CCCO3)c2c1` [Compound 151, 2-{[4-({3-[(2,4-dichlorophenoxy)methyl]phenyl}methyl)piperidin-1-yl]methyl}-1-{[(2S)-oxolan-2-yl]methyl}-1H-1,3-benzodiazole-6-carboxylic acid]: the concentration giving a half-maximal response (EC50) was under 0.05 µM.

Regarding `CCn1cncc1Cn1c(CN2CCC(Cc3cccc(COc4ccc(Cl)cc4C#N)c3)CC2)nc2ccc(C(=O)O)cc21` [Compound 165, 2-{[4-({3-[(4-chloro-2-cyanophenoxy)methyl]phenyl}methyl)piperidin-1-yl]methyl}-1-[(1-ethyl-1H-imidazol-5-yl)methyl]-1H-1,3-benzodiazole-6-carboxylic acid], the EC50 was under 0.05 µM.

For the molecule `Cc1ccc(Cc2cccc(C(=O)N3CCN(Cc4nc5ccc(C(=O)O)cc5n4C[C@@H]4CCO4)CC3)c2)cc1` [Compound 33, 2-[(4-{3-[(4-methylphenyl)methyl]benzoyl}piperazin-1-yl)methyl]-1-{[(2S)-oxetan-2-yl]methyl}-1H-1,3-benzodiazole-6-carboxylic acid], the EC50 is over 0.5 µM.

As to `CCn1cncc1Cn1c(CN2CC[C@H](Oc3ccnc(COc4ccc(Cl)cc4Cl)c3)C[C@@H]2C)nc2ccc(C(=O)O)cc21` [Example 274, 2-(((2S,4S)-4-((2-((2,4-Dichlorophenoxy)methyl)pyridin-4-yl)oxy)-2-methylpiperidin-1-yl)methyl)-1-((1-ethyl-1H-imidazol-5-yl)methyl)-1H-benzo[d]imidazole-6-carboxylic acid], the EC50 was under 0.05 µM.

On to `O=C(O)c1ccc2nc(CN3CCN(C(=O)c4ccc(COc5ccc(Cl)cc5F)o4)CC3)n(C[C@@H]3CCO3)c2c1` [Example 36, (S)-2-((4-(5-((4-Chloro-2-fluorophenoxy)methyl)furan-2-carbonyl)-piperazin-1-yl)methyl)-1-(oxetan-2-ylmethyl)-1H-benzo[d]imidazole-6-carboxylic acid], for which the EC50 is over 0.5 µM.

Take `CCn1cncc1Cn1c(CN2CCC([C@H](OC)c3cccc(COc4ccc(Cl)cc4Cl)c3)CC2)nc2ccc(C(=O)O)cc21` (single isomer, unassigned) [Example 205]: the EC50 was 0.05 to 0.5 µM.

Take `C[C@H]1C[C@@H](Oc2ccnc(COc3ccc(F)cc3F)n2)CCN1Cc1nc2ncc(C(=O)O)cc2n1C[C@@H]1CCO1` [Compound 512, 2-{[(2S,4S)-4-({2-[(2,4-difluorophenoxy)methyl]pyrimidin-4-yl}oxy)-2-methylpiperidin-1-yl]methyl}-1-{[(2S)-oxetan-2-yl]methyl}-1H-imidazo[4,5-b]pyridine-6-carboxylic acid]: the EC50 is over 0.5 µM.

As to `CCn1cncc1Cn1c(CN2CCN(C(=O)c3cccc(CNc4ccc(C)cc4Cl)c3)CC2)nc2ccc(C(=O)O)cc21` [Compound 79, 2-{[4-(3-{[(2-chloro-4-methylphenyl)amino]methyl}benzoyl)piperazin-1-yl]methyl}-1-[(1-ethyl-1H-imidazol-5-yl)methyl]-1H-1,3-benzodiazole-6-carboxylic acid], the concentration giving a half-maximal response (EC50) is over 0.5 µM.

The EC50 is the concentration needed to bring the measured effect to its halfway point.
